# Reference: patent publication US20160237067A1, “SUBSTITUTED PHENYLALANINE DERIVATIVES” (BAYER PHARMA AKTIENGESELLSCHAFT, priority 2013, published 2016)
# Where a name gives a salt, the structure may show the parent alone.
# What was measured:
# human factor XIa = target: T1, human factor XIa (Homo sapiens, UniProt P03951); assay: Measurement of FXIa inhibition (fluorogenic peptide substrate Boc-Glu(OBzl)-Ala-Arg-AMC); type: biochemical; conditions: factor XIa from Kordia 0.45 nM; 15 min preincubation; 30 min at 22° C.
# T1 construct: purchased Kordia
# T1 sequence (P03951 388-625 limits assumed): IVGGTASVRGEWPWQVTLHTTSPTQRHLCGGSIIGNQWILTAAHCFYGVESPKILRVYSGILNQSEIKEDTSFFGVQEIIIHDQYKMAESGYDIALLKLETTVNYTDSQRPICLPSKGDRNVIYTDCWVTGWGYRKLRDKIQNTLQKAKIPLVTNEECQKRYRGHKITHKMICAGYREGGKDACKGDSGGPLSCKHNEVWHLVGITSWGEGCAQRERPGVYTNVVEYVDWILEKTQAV
# T1 sequence (P03951 19-387 partner limits assumed): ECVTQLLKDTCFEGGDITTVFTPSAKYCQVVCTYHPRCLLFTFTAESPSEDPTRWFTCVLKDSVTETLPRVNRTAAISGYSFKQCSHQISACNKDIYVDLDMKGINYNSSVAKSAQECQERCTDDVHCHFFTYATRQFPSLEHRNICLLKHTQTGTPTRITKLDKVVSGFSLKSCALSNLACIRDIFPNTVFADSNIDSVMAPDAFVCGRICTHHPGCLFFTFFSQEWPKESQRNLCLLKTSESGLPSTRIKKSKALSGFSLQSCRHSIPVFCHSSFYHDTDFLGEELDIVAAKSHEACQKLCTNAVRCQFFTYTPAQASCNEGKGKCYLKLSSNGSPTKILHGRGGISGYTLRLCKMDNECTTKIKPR
# Experimental: The factor XIa inhibition of the substances according to the invention is determined using a biochemical test system which utilizes the reaction of a peptidic factor XIa substrate to determine the enzymatic activity of human factor XIa. Here, factor XIa cleaves from the peptic factor XIa substrate the C-terminal aminomethylcoumarin (AMC), the fluorescence of which is measured. The determinations are carried out in microtitre plates.
# Test substances are dissolved in dimethyl sulphoxide and serially diluted in dimethyl sulphoxide (3000 μM to 0.0078 μM; resulting final concentrations in the test: 50 μM to 0.00013 μM). In each case 1 μl of the diluted substance solutions is placed into the wells of white microtitre plates from Greiner (384 wells). Subsequently, the following are added successively: 20 μl of assay buffer (50 mmol/l Tris buffer pH 7.4; 100 mmol/l sodium chloride; 5 mmol/l calcium chloride; 0.1% bovine serum albumin) and 20 μl of factor XIa from Kordia (0.45 nM in assay buffer). After 15 min of incubation, the enzyme reaction is started by addition of 20 μl of the factor XIa substrate Boc-Glu(OBzl)-Ala-Arg-AMC dissolved in assay buffer (10 μM in assay buffer) from Bachem, the mixture is incubated at room temperature (22° C.) for 30 min and fluorescence is then measured (excitation: 360 nm, emission: 460 nm). The measured emissions of the test batches with test substance are compared to those of control batches without test substance (only dimethyl sulphoxide instead of test substance in dimethyl sulphoxide), and IC50 values are calculated from the concentration/activity relationships.
# human and animal plasma = assay: Determination of anticoagulatory activity: activated partial thromboplastin time (aPTT) in plasma; type: biochemical; conditions: C.K. Prest kit, 37° C., 3 minutes incubation, plasma species of Table B not stated
# Experimental: The anticoagulatory activity of the test substances is determined in vitro in human and animal plasma (for example mouse, rat, rabbit, pig and dog plasma). To this end, blood is drawn off in a mixing ratio of sodium citrate/blood of 1:9 using a 0.11 molar sodium citrate solution as receiver. Immediately after the blood has been drawn off, it is mixed thoroughly and centrifuged at about 4000 g for 15 minutes. The supernatant is pipetted off.
# The activated partial thromboplastin time (aPTT) is determined in the presence of varying concentrations of test substance or the corresponding solvent using a commercial test kit (C.K. Prest from Diagnostica Stago). The test compounds are incubated with the plasma and the PTT reagent (cephalin, kaolin) at 37° C. for 3 minutes. Coagulation is then started by addition of a 25 mM aqueous calcium chloride solution, and the time when coagulation occurs is determined. The concentration of test substance which brings about a 1.5-fold extension of the aPTT is determined Activity data from this test are listed in Table B below: […]
Structure (SMILES),IC50 (human factor XIa),aPTT (concentration of test substance which brings about a 1.5-fold extension of the aPTT) (human and animal plasma)
"NC[C@H]1CC[C@H](C(=O)N[C@@H](Cc2ccc(-c3cccc(C(=O)NC4CCNCC4)c3)cc2)C(=O)Nc2ccc(-c3nn[nH]n3)cc2)CC1 [Example 13, 4′-[(2S)-2-({[trans-4-(Aminomethyl)cyclohexyl]carbonyl}amino)-3-oxo-3-{[4-(2H-tetrazol-5-yl)phenyl]amino}propyl]-N-(piperidin-4-yl)biphenyl-3-carboxamide hydrochloride]",17 nM,0.28 µmol/L
"CCN(CC)CCNC(=O)c1cccc(-c2ccc(C[C@H](NC(=O)[C@H]3CC[C@H](CN)CC3)C(=O)Nc3ccc(-c4nn[nH]n4)cc3)cc2)c1 [Example 14, 4′-[(2S)-2-({[trans-4-(Aminomethyl)cyclohexyl]carbonyl}amino)-3-oxo-3-{[4-(2H-tetrazol-5-yl)phenyl]amino}propyl]-N-[2-(diethylamino)ethyl]biphenyl-3-carboxamide hydrochloride]",15 nM,0.35 µmol/L
"NC[C@H]1CC[C@H](C(=O)N[C@@H](Cc2ccc(-c3cccc(C(=O)NC4CCNCC4)c3F)cc2)C(=O)Nc2ccc(-c3nn[nH]n3)cc2)CC1 [Example 15, 4′-[(2S)-2-({[trans-4-(Aminomethyl)cyclohexyl]carbonyl}amino)-3-oxo-3-{[4-(2H-tetrazol-5-yl)phenyl]amino}propyl]-2-fluoro-N-(piperidin-4-yl)biphenyl-3-carboxamide hydrochloride]",10 nM,0.52 µmol/L
"CCN(CC)CCNC(=O)c1cccc(-c2ccc(C[C@H](NC(=O)[C@H]3CC[C@H](CN)CC3)C(=O)Nc3ccc(-c4nn[nH]n4)cc3)cc2)c1F [Example 16, 4′-[(2S)-2-({[trans-4-(Aminomethyl)cyclohexyl]carbonyl}amino)-3-oxo-3-{[4-(2H-tetrazol-5-yl)phenyl]amino}propyl]-N-[2-(diethylamino)ethyl]-2-fluorobiphenyl-3-carboxamide hydrochloride]",9 nM,0.2 µmol/L
"NC[C@H]1CC[C@H](C(=O)N[C@@H](Cc2ccc(-c3cccc(C(=O)N[C@@H]4CCNC4)c3F)cc2)C(=O)Nc2ccc(-c3nn[nH]n3)cc2)CC1 [Example 17, 4′-[(2S)-2-({[trans-4-(Aminomethyl)cyclohexyl]carbonyl}amino)-3-oxo-3-{[4-(2H-tetrazol-5-yl)phenyl]amino}propyl]-2-fluoro-N-[(3R)-pyrrolidin-3-yl]biphenyl-3-carboxamide hydrochloride]",9.3 nM,0.58 µmol/L
"NC[C@H]1CC[C@H](C(=O)N[C@@H](Cc2ccc(-c3cccc(C(=O)N4CCNCC4)c3F)cc2)C(=O)Nc2ccc(-c3nn[nH]n3)cc2)CC1 [Example 18, trans-4-(Aminomethyl)-N-[(2S)-3-[2′-fluoro-3′-(piperazin-1-ylcarbonyl)biphenyl-4-yl]-1-oxo-1-{[4-(2H-tetrazol-5-yl)phenyl]amino}propan-2-yl]cyclohexanecarboxamide hydrochloride]",16 nM,0.35 µmol/L
"CCN(CC)CCCNC(=O)c1ccc(C)c(-c2ccc(C[C@H](NC(=O)[C@H]3CC[C@H](CN)CC3)C(=O)Nc3ccc(-c4nn[nH]n4)cc3)cc2)c1 [Example 19, 4′-[(2S)-2-({[trans-4-(Aminomethyl)cyclohexyl]carbonyl}amino)-3-oxo-3-{[4-(2H-tetrazol-5-yl)phenyl]amino}propyl]-N-[3-(diethylamino)propyl]-6-methylbiphenyl-3-carboxamide hydrochloride]",6.4 nM,0.26 µmol/L
"NC[C@H]1CC[C@H](C(=O)N[C@@H](Cc2ccc(-c3cccc(C(=O)N4CCOCC4)c3)cc2)C(=O)Nc2ccc(-c3nn[nH]n3)cc2)CC1 [Example 20, trans-4-(Aminomethyl)-N-[(2S)-3-[3′-(morpholin-4-ylcarbonyl)biphenyl-4-yl]-1-oxo-1-{[4-(2H-tetrazol-5-yl)phenyl]amino}propan-2-yl]cyclohexanecarboxamide hydrochloride]",2.7 nM,0.39 µmol/L
"Cc1ccc(C#N)cc1-c1ccc(C[C@H](NC(=O)[C@H]2CC[C@H](CN)CC2)C(=O)Nc2ccc(-c3nn[nH]n3)cc2)cc1 [Example 21, trans-4-(Aminomethyl)-N-[(2S)-3-(5′-cyano-2′-methylbiphenyl-4-yl)-1-oxo-1-{[4-(2H-tetrazol-5-yl)phenyl]amino}propan-2-yl]cyclohexanecarboxamide hydrochloride]",8.3 nM,0.22 µmol/L
"Cc1ccc(-c2ccc(C[C@H](NC(=O)[C@H]3CC[C@H](CN)CC3)C(=O)Nc3ccc(-c4nn[nH]n4)cc3)cc2)cc1NC(=O)C1CCNCC1 [Example 22, N-{4[(2S)-2-({[trans-4-(Aminomethyl)cyclohexyl]carbonyl}amino)-3-oxo-3-{[4-(2H-tetrazol-5-yl)phenyl]amino}propyl]-4-methylbiphenyl-3-yl}piperidine-4-carboxamide hydrochloride]",25 nM,0.34 µmol/L
"CCc1ccc(C(=O)NCCN(CC)CC)cc1-c1ccc(C[C@H](NC(=O)[C@H]2CC[C@H](CN)CC2)C(=O)Nc2ccc(-c3nn[nH]n3)cc2)cc1 [Example 23, 4′-[(2S)-2-({[trans-4-(Aminomethyl)cyclohexyl]carbonyl}amino)-3-oxo-3-{[4-(2H-tetrazol-5-yl)phenyl]amino}propyl]-N-[2-(diethylamino)ethyl]-6-ethylbiphenyl-3-carboxamide hydrochloride]",13 nM,0.36 µmol/L
"COc1ccc(-c2ccc(C[C@H](NC(=O)[C@H]3CC[C@H](CN)CC3)C(=O)Nc3ccc(-c4nnn[nH]4)cc3)cc2)cc1S(=O)(=O)N1CCOCC1 [Example 24, trans-4-(Aminomethyl)-N-[(2S)-3-[4′-methoxy-3′-(morpholin-4-ylsulphonyl)biphenyl-4-yl]-1-oxo-1-{[4-(1H-tetrazol-5-yl)phenyl]amino}propan-2-yl]cyclohexanecarboxamide hydrochloride]",2 nM,0.09 µmol/L
"Cc1ccc(S(=O)(=O)N(C)C)cc1-c1ccc(C[C@H](NC(=O)[C@H]2CC[C@H](CN)CC2)C(=O)Nc2ccc3[nH]c(=O)[nH]c3c2)cc1 [Example 25, trans-4-(Aminomethyl)-N-{(2S)-3-[5′-(dimethylsulphamoyl)-2′-methylbiphenyl-4-yl]-1-oxo-1-[(2-oxo-2,3-dihydro-1H-benzimidazol-5-yl)amino]propan-2-yl}cyclohexanecarboxamide hydrochloride]",6.1 nM,0.15 µmol/L
"Cc1ccc(S(=O)(=O)N2CCOCC2)cc1-c1ccc(C[C@H](NC(=O)[C@H]2CC[C@H](CN)CC2)C(=O)Nc2ccc3[nH]c(=O)[nH]c3c2)cc1 [Example 26, trans-4-(Aminomethyl)-N-{(2S)-3-[2′-methyl-5′-(morpholin-4-ylsulphonyl)biphenyl-4-yl]-1-oxo-1-[(2-oxo-2,3-dihydro-1H-benzimidazol-5-yl)amino]propan-2-yl}cyclohexanecarboxamide hydrochloride]",6.1 nM,0.18 µmol/L
"NC[C@H]1CC[C@H](C(=O)N[C@@H](Cc2ccc(-c3cccc(C(=O)NCCN4CCOCC4)c3)cc2)C(=O)Nc2ccc(-c3nnn[nH]3)cc2)CC1 [Example 27, 4′-[(2S)-2-({[trans-4-(Aminomethyl)cyclohexyl]carbonyl}amino)-3-oxo-3-{[4-(1H-tetrazol-5-yl)phenyl]amino}propyl]-N-[2-(morpholin-4-yl)ethyl]biphenyl-3-carboxamide hydrochloride]",6 nM,0.19 µmol/L
"Cc1ccc(N(C)C)cc1-c1ccc(C[C@H](NC(=O)[C@H]2CC[C@H](CN)CC2)C(=O)Nc2ccc(-c3nnn[nH]3)cc2)cc1 [Example 28, trans-4-(Aminomethyl)-N-[(2S)-3-[5′-(dimethylamino)-2′-methylbiphenyl-4-yl]-1-oxo-1-{[4-(1H-tetrazol-5-yl)phenyl]amino}propan-2-yl]cyclohexanecarboxamide hydrochloride]",1.5 nM,0.26 µmol/L
